Reference: PubChem BioAssay AID248 (DTP/NCI, 2004)
Values joined by “and” are separate entries in the source; they are usually repeats but may differ in a detail not shown here. Identical values can stand only once. Toxic doses and inconclusive results are not listed. No stated cut-off is given here; in the data, active means T/C of 150% or more; inactive means T/C below 125%.

Test system: L1210 leukemia ip in BDF1 mice, survival T/C
Test: NCI In Vivo Anticancer Drug Screen. Data for tumor model L1210 Leukemia (intraperitoneal) in B6D2F1 (BDF1) mice
Details: endpoint: mean survival time, higher = longer survival
In short: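 Each compound was tested against a transplantable tumor grown in mice. The endpoint was survival, with treated animals benchmarked against vehicle controls as a simple ratio.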

[1] = dose: 100.0 mg/kg/injection, schedule: Q04DX002 (ip), vehicle: saline with Tween-80
[2] = dose: 200.0 mg/kg/injection, schedule: Q04DX002 (ip), vehicle: saline with Tween-80
[3] = dose: 400.0 mg/kg/injection, schedule: Q04DX002 (ip), vehicle: saline with Tween-80
[4] = dose: 100.0 mg/kg/injection, schedule: Q01DX009 (ip), vehicle: Klucel (hydroxypropylcellulose) (HPC)
[5] = dose: 100.0 mg/kg/injection, schedule: Q04DX003 (ip), vehicle: saline with Tween-80
[6] = dose: 200.0 mg/kg/injection, schedule: Q01DX009 (ip), vehicle: Klucel (hydroxypropylcellulose) (HPC)
[7] = dose: 200.0 mg/kg/injection, schedule: Q04DX003 (ip), vehicle: saline with Tween-80
[8] = dose: 400.0 mg/kg/injection, schedule: Q01DX009 (ip), vehicle: Klucel (hydroxypropylcellulose) (HPC)
[9] = dose: 100.0 mg/kg/injection, schedule: Q01DX001 (ip), vehicle: saline
[10] = dose: 200.0 mg/kg/injection, schedule: Q01DX001 (ip), vehicle: saline
[11] = dose: 400.0 mg/kg/injection, schedule: Q01DX001 (ip), vehicle: saline

Measured: T/C

CC1=C2CC[C@H]3[C@@H]4CC[C@H](O)[C@@]4(C)CC[C@@H]3[C@@]2(C)CCC1=O
inactive: dose: 100.0 mg/kg/injection, schedule: Q01DX001 (sc), vehicle: steriod suspending solution 98 % of control | dose: 200.0 mg/kg/injection, schedule: Q01DX001 (sc), vehicle: steriod suspending solution 98 % of control | dose: 400.0 mg/kg/injection, schedule: Q01DX001 (sc), vehicle: steriod suspending solution 96 % of control | dose: 800.0 mg/kg/injection, schedule: Q01DX001 (sc), vehicle: steriod suspending solution 96 % of control

CCOc1cccc(CCC(=O)O)c1
inactive: dose: 100.0 mg/kg/injection, schedule: Q04DX003 (ip), vehicle: gum acacia 105 % of control | dose: 200.0 mg/kg/injection, schedule: Q04DX003 (ip), vehicle: gum acacia 96 % of control | dose: 400.0 mg/kg/injection, schedule: Q04DX003 (ip), vehicle: gum acacia 93 % of control

c1ccc(C(c2ccccc2)c2ccncc2)cc1
inactive: [1] 87 % of control | [2] 90 % of control | [3] 87 % of control

CC(=O)Nc1ccc([N+](=O)[O-])c(NC(C)=O)n1
inactive: [4] 103 % of control | [5] 101 % of control | [6] 100 % of control | [7] 93 % of control | [8] 97 % of control | dose: 400.0 mg/kg/injection, schedule: Q04DX003 (ip), vehicle: saline with Tween-80 112 % of control

CC(C)(C)N(CCC(=O)c1ccccc1)C(=O)c1ccccc1
inactive: [4] 98 % of control | [6] 102 % of control | [8] 88 % of control

O=C(c1cccc([N+](=O)[O-])c1)C1CC1
inactive: dose: 25.0 mg/kg/injection, schedule: Q01DX001 (ip), vehicle: Klucel (hydroxypropylcellulose) (HPC) 97 % of control | dose: 50.0 mg/kg/injection, schedule: Q01DX001 (ip), vehicle: Klucel (hydroxypropylcellulose) (HPC) 101 % of control | dose: 100.0 mg/kg/injection, schedule: Q01DX001 (ip), vehicle: Klucel (hydroxypropylcellulose) (HPC) 95 % of control

NC(CS)C(=O)O (configuration not stated)
inactive: [9] 105 % of control | [10] 92 % of control | dose: 250.0 mg/kg/injection, schedule: Q01DX Z (ip), vehicle: other 91 % of control | dose: 250.0 mg/kg/injection, schedule: Q01DX Z (ip), vehicle: saline 102 % of control | [11] 97 % of control | dose: 500.0 mg/kg/injection, schedule: Q01DX Z (ip), vehicle: saline 94 % of control | dose: 1000.0 mg/kg/injection, schedule: Q01DX Z (ip), vehicle: saline 112 % of control

O=C(/C=C/c1ccccc1)NC(=S)Nc1cc(C(F)(F)F)ccc1Cl
inactive: dose: 100.0 mg/kg/injection, schedule: Q01DX001 (ip), vehicle: saline with Tween-80 103 % of control | dose: 100.0 mg/kg/injection, schedule: Q01DX009 (ip), vehicle: saline with Tween-80 92 % of control and 86 % of control | [1] 98 % of control and 90 % of control | [5] 100 % of control | dose: 200.0 mg/kg/injection, schedule: Q01DX001 (ip), vehicle: saline with Tween-80 95 % of control | dose: 200.0 mg/kg/injection, schedule: Q01DX009 (ip), vehicle: saline with Tween-80 92 % of control and 90 % of control | [2] 93 % of control and 114 % of control | [7] 94 % of control | dose: 400.0 mg/kg/injection, schedule: Q01DX001 (ip), vehicle: saline with Tween-80 101 % of control | dose: 400.0 mg/kg/injection, schedule: Q01DX009 (ip), vehicle: saline with Tween-80 95 % of control and 89 % of control | [3] 95 % of control and 101 % of control

S=C=NCCCCCCCCCCCCN=C=S
inactive: dose: 6.25 mg/kg/injection, schedule: Q01DX009 (ip), vehicle: saline with Tween-80 101 % of control | dose: 12.5 mg/kg/injection, schedule: Q01DX009 (ip), vehicle: saline with Tween-80 93 % of control | dose: 25.0 mg/kg/injection, schedule: Q04DX002 (ip), vehicle: saline with Tween-80 114 % of control | dose: 50.0 mg/kg/injection, schedule: Q04DX002 (ip), vehicle: saline with Tween-80 111 % of control | [1] 101 % of control

CCCCCCCCCCCC(=O)NN
inactive: dose: 18.8 mg/kg/injection, schedule: Q01DX009 (ip), vehicle: carboxymethylcellulose (CMC) 105 % of control | dose: 37.5 mg/kg/injection, schedule: Q01DX009 (ip), vehicle: carboxymethylcellulose (CMC) 96 % of control | dose: 75.0 mg/kg/injection, schedule: Q01DX009 (ip), vehicle: carboxymethylcellulose (CMC) 109 % of control and 114 % of control | [9] 98 % of control | [10] 104 % of control | [11] 106 % of control

CC(OC(=O)c1ccccc1)C(N)=S (configuration not stated)
inactive: [9] 102 % of control | dose: 100.0 mg/kg/injection, schedule: Q01DX009 (ip), vehicle: acetone 93 % of control | dose: 100.0 mg/kg/injection, schedule: Q04DX003 (ip), vehicle: acetone 101 % of control | [10] 93 % of control | dose: 200.0 mg/kg/injection, schedule: Q01DX009 (ip), vehicle: acetone 95 % of control | dose: 200.0 mg/kg/injection, schedule: Q04DX003 (ip), vehicle: acetone 102 % of control | [11] 103 % of control | dose: 400.0 mg/kg/injection, schedule: Q01DX009 (ip), vehicle: acetone 96 % of control | dose: 400.0 mg/kg/injection, schedule: Q04DX003 (ip), vehicle: acetone 102 % of control

c1ccc([P+](c2ccccc2)(c2ccccc2)c2ccc([P+](c3ccccc3)(c3ccccc3)c3ccccc3)c3ccccc23)cc1
inactive: dose: 0.6 mg/kg/injection, schedule: Q04DX003 (ip), vehicle: Klucel (hydroxypropylcellulose) (HPC) 92 % of control | dose: 1.0 mg/kg/injection, schedule: Q04DX003 (ip), vehicle: Klucel (hydroxypropylcellulose) (HPC) 92 % of control | dose: 1.5 mg/kg/injection, schedule: Q04DX003 (ip), vehicle: Klucel (hydroxypropylcellulose) (HPC) 92 % of control | dose: 2.25 mg/kg/injection, schedule: Q04DX003 (ip), vehicle: Klucel (hydroxypropylcellulose) (HPC) 92 % of control | dose: 3.12 mg/kg/injection, schedule: Q04DX003 (ip), vehicle: Klucel (hydroxypropylcellulose) (HPC) 96 % of control | dose: 6.25 mg/kg/injection, schedule: Q04DX003 (ip), vehicle: Klucel (hydroxypropylcellulose) (HPC) 94 % of control

On1ccc(N2CCOCC2)cc1=NC1CCCCC1
inactive: dose: 5.0 mg/kg/injection, schedule: Q01DX001 (ip), vehicle: saline 95 % of control | dose: 10.0 mg/kg/injection, schedule: Q01DX001 (ip), vehicle: saline 97 % of control | dose: 20.0 mg/kg/injection, schedule: Q01DX001 (ip), vehicle: saline 90 % of control | dose: 40.0 mg/kg/injection, schedule: Q01DX001 (ip), vehicle: saline 98 % of control | dose: 80.0 mg/kg/injection, schedule: Q01DX001 (ip), vehicle: saline 101 % of control | [9] 103 % of control

c1ccc(-c2nnc(-c3ccccc3)o2)cc1
inactive: dose: 50.0 mg/kg/injection, schedule: Q01DX009 (ip), vehicle: Klucel (hydroxypropylcellulose) (HPC) 95 % of control | [4] 101 % of control | [6] 94 % of control

c1cc(C2=NCCN2)ccc1C1=NCCN1
inactive: dose: 15.0 mg/kg/injection, schedule: Q01DX Z (ip), vehicle: saline 104 % of control | dose: 30.0 mg/kg/injection, schedule: Q01DX Z (ip), vehicle: saline 102 % of control | dose: 60.0 mg/kg/injection, schedule: Q01DX Z (ip), vehicle: saline 106 % of control | dose: 120.0 mg/kg/injection, schedule: Q01DX Z (ip), vehicle: saline 101 % of control

O=C(OCCCCCOC(=O)c1ccccc1O)c1ccccc1O
inactive: dose: 100.0 mg/kg/injection, schedule: Q01DX001 (ip), vehicle: other 91 % of control | dose: 100.0 mg/kg/injection, schedule: Q04DX003 (ip), vehicle: Klucel (hydroxypropylcellulose) (HPC) 92 % of control | dose: 200.0 mg/kg/injection, schedule: Q01DX001 (ip), vehicle: other 88 % of control | dose: 200.0 mg/kg/injection, schedule: Q04DX003 (ip), vehicle: Klucel (hydroxypropylcellulose) (HPC) 91 % of control | dose: 400.0 mg/kg/injection, schedule: Q04DX003 (ip), vehicle: Klucel (hydroxypropylcellulose) (HPC) 89 % of control

Cc1nc2cc(Cl)cc([N+](=O)[O-])c2nc1C
inactive: [4] 91 % of control | [6] 93 % of control | [8] 91 % of control
